Test results: patent publication EP4678638A1, “NEW E3 UBIQUITIN LIGASE LIGAND, PROTEIN DEGRADATION AGENT AND USE THEREOF” (priority 2023, dated 2024)
One block for each compound: values may come before it.

Tests used:
EGFR = experiment: Western blot degradation of EGFR (H1975 Cell); assay type: cell-based, Human; conditions: Table D2
Description: Conventional Western blot assay was performed to evaluate the effects of the compounds of the present disclosure on the expression of target proteins in cells.
(1) Cell Seeding and Protein Harvesting: The selected cells were processed according to the cell seeding procedure and protein harvesting procedure in Table III-2. Table III-2 Cell Seeding and Protein Harvesting Procedures
(2) To the collected supernatant, 5X SDS sample loading buffer was added, followed by denaturation at 95°C for 5 minutes. The denatured samples were then separated by SDS-PAGE electrophoresis on a polyacrylamide gel. Proteins were transferred to a nitrocellulose membrane (0.45 µm NC membrane), blocked with blocking buffer at room temperature for 1 hour, and subjected to antibody incubation and development procedures according to the antibody manufacturer's instructions (Cell Signaling Technology).
Half-Maximal Degradation Concentration value (the drug concentration required for degrading proteins by 50%, abbreviated as DC50) reads method: comparing the grayscale values of Western blot bands from drug-treated samples with those from blank DMSO-treated controls, and identifying the drug concentration range at which the grayscale value is half that of the DMSO-treated control bands.
DC50 values can be calculated using ImageJ software to measure grayscale values of Western blot bands from drug-treated samples. The concentration-response curve is fitted to estimate the drug concentration corresponding to half the grayscale value.
Target protein remaining (%) refers to the percentage of target protein remaining in hPBMC cells after treatment with protein degrader compounds.
Calculation method for target protein remaining (%): Use ImageJ software to measure grayscale values of Western blot bands from drug (protein degrader)-treated samples. The grayscale value of drug-treated bands is divided by that of internal control protein bands, and the resulting quotient is normalized to obtain the relative percentage of remaining target protein after protein degrader treatment.
Target protein degradation rate (%) = 100% - target protein remaining (%).

H2228 = experiment: CCK-8 proliferation, NCI-H2228 (H2228); assay type: cell-based; conditions: Homo sapiens, NCI-H2228; Table B6, compounds designed based on the ALK inhibitors; H2228 cells; read-out: Inhibitory activity (IC50, nM) on tumor cell proliferation, H2228
Description: (§1) The tumor cells used herein were cultured in a cell culture medium listed in table A1 at 37°C in an incubator with 5% CO2. Prior to experimentation, all cell lines used were correctly identified by STR profiling, and tested negative for mycoplasma contamination using a mycoplasma detection kit through routine screenings. Table A1. Tumor cells and cell culture medium used in the present disclosure
(§2) IC50 values of the compounds of the present disclosure (including the compounds in Table 1, and compounds of examples) were measured using the Meilun Cell Counting Kit-8 kit from Dalian Meilun Biotech Co., Ltd. Assay details are as follows: tumor cells were seeded in a 96-well plate at a density listed in Table A2. After 24h, 100 µL of the inoculated cells were treated with 0.5µL of the compounds of the present disclosure (including the compounds in Tables 1 and 2, and compounds of examples) at 10 different successively decreasing concentrations (starting at the highest concentration of 10µM; 5-fold serial dilutions). After the cells were treated with the compounds of the present disclosure for a period of time, the cell viability detection reagent was added to the culture medium for cell viability assessment according to the instructions provided with the CCK-8 kit. […] The growth inhibition of the compounds of the present disclosure on cells was plotted by Prism Graphpad software, and the IC50 values of the compounds of the present disclosure were calculated therefrom. […] Seeding protocol and treatment time for tumor cells

MM.1S = experiment: CCK-8 proliferation, MM.1S; assay type: cell-based; conditions: Homo sapiens, MM1.S; Table B6, compounds designed based on the ALK inhibitors; MM.1S cells; read-out: Inhibitory activity (IC50, nM) on tumor cell proliferation, MM.1S
Description: as §1, §2

SR = experiment: CCK-8 proliferation, SR; assay type: cell-based, Human; conditions: Homo sapiens; Table B6, compounds designed based on the ALK inhibitors; SR cells; read-out: Inhibitory activity (IC50, nM) on tumor cell proliferation, SR
Description: as §1, §2

H1975 = experiment: CCK-8 proliferation, NCI-H1975 (H1975); assay type: cell-based, Human; conditions: Homo sapiens, NCI-H1975; Table B6, compounds designed based on the ALK inhibitors; H1975 cells; read-out: Inhibitory activity (IC50, nM) on tumor cell proliferation, H1975
Outline: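 Cells seeded, then after 24 h treated with 10 concentrations (top 10 µM, 5-fold serial dilution) for a line-specific time at 37°C, 5% CO2. Viability read by CCK-8; IC50 fitted from growth-inhibition curves.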

MCF7 = experiment: CCK-8 proliferation, MCF7 (MCF-7); assay type: cell-based; conditions: Homo sapiens, MCF7; Table B6, compounds designed based on the ALK inhibitors; MCF-7 cells; read-out: Inhibitory activity (IC50, nM) on tumor cell proliferation, MCF-7
Description: as §1, §2

SMILES: COc1cc(N2CCN(Cc3ccc(C4CCC(=O)NC4=O)cc3)CC2)c(C)cc1Nc1ncc(Br)c(Nc2ccc3nccnc3c2P(C)(C)=O)n1 (stereo not shown) [GT-03913, 3-(4-((4-(4-((5-bromo-4-((5-(dimethylphosphoryl)quinoxalin-6-yl)amino)pyrimidin-2-yl)amino)-5-methoxy-2-methylphenyl)piperazin-1-yl)methyl)phenyl)piperidine-2,6-dione]
Degradation of substrate protein EGFR (substrate protein remaining %) (EGFR): A (A is defined as 0% ≤ substrate protein remaining % ≤ 80%)

SMILES: COc1cc(N2CCN(Cc3ccc(C4CCC(=O)NC4=O)c(F)c3)CC2)c(C)cc1Nc1ncc(Br)c(Nc2ccc3nccnc3c2P(C)(C)=O)n1 (stereo not shown) [GT-03914, 3-(4-((4-(4-((5-bromo-4-((5-(dimethylphosphoryl)quinoxalin-6-yl)amino)pyrimidin-2-yl)amino)-5-methoxy-2-methylphenyl)piperazin-1-yl)methyl)-2-fluorophenyl)piperidine-2,6-dione]
Degradation of substrate protein EGFR (substrate protein remaining %) (EGFR): A (A is defined as 0% ≤ substrate protein remaining % ≤ 80%)

SMILES: COc1cc(N2CCC(N(C)Cc3ccc(C4CCC(=O)NC4=O)c(F)c3)CC2)c(C)cc1Nc1ncc(Br)c(Nc2ccc3nccnc3c2P(C)(C)=O)n1 (stereo not shown) [GT-03931, 3-(4-(((1-(4-((5-bromo-4-((5-(dimethylphosphoryl)quinoxalin-6-yl)amino)pyrimidin-2-yl)amino)-5-methoxy-2-methylphenyl)piperidin-4-yl)(methyl)amino)methyl)-2-fluorophenyl)piperidine-2,6-dione]
Degradation of substrate protein EGFR (substrate protein remaining %) (EGFR): A (A is defined as 0% ≤ substrate protein remaining % ≤ 80%)

SMILES: O=C1CCN(c2ccc(CN3C[C@@H]4C[C@H]3CN4c3ccc(-c4cc(F)c5c(c4)C(=O)N(C(C(=O)Nc4nccs4)c4ncn6c4CCC6)C5)cc3)cn2)C(=O)N1 (stereo partly drawn) [GT-05120, 2-(6,7-dihydro-5H-pyrrolo[1,2-c]imidazol-1-yl)-2-(6-(4-((1S,4S)-5-((6-(2,4-dioxotetrahydropyrimidin-1(2H)-yl)pyridin-3-yl)methyl)-2,5-diazabicyclo[2.2.1]heptan-2-yl)phenyl)-4-fluoro-1-oxoisoindolin-2-yl)-N-(thiazol-2-yl)acetamide]
Degradation of substrate protein EGFR (substrate protein remaining %) (EGFR): A (A is defined as 0% ≤ substrate protein remaining % ≤ 80%)

SMILES: CC(C)n1nc(N2CCN(Cc3ccc(N4CCC(=O)NC4=O)cn3)CC2)c2cnc(Nc3ccnc(-c4cnn(S(=O)(=O)C5CC5)c4)n3)cc21 [GT-06014, 1-(6-((4-(6-((2-(1-(cyclopropylsulfonyl)-1H-pyrazol-4-yl)pyrimidin-4-yl)amino)-1-isopropyl-1H-pyrazolo[4,3-c]pyridin-3-yl)piperazin-1-yl)methyl)pyridin-3-yl)dihydropyrimidine-2,4(1H,3H)-dione]
Degradation of substrate protein EGFR (substrate protein remaining %) (EGFR): A (A is defined as 0% ≤ substrate protein remaining % ≤ 80%)

SMILES: CC(C)n1nc(N2CCN(Cc3ccc(N4CCC(=O)NC4=O)nc3)CC2)c2cnc(Nc3ccnc(-c4cnn(S(=O)(=O)C5CC5)c4)n3)cc21 [GT-06015, 1-(5-((4-(6-((2-(1-(cyclopropylsulfonyl)-1H-pyrazol-4-yl)pyrimidin-4-yl)amino)-1-isopropyl-1H-pyrazolo[4,3-c]pyridin-3-yl)piperazin-1-yl)methyl)pyridin-2-yl)dihydropyrimidine-2,4(1H,3H)-dione]
Degradation of substrate protein EGFR (substrate protein remaining %) (EGFR): A (A is defined as 0% ≤ substrate protein remaining % ≤ 80%)

SMILES: CC(C)n1nc(N2CCN(Cc3cccc(NC4CCC(=O)NC4=O)c3)CC2)c2cnc(Nc3ccnc(-c4cnn(S(=O)(=O)C5CC5)c4)n3)cc21 (stereo not shown) [GT-06016, 3-((3-((4-(6-((2-(1-(cyclopropylsulfonyl)-1H-pyrazol-4-yl)pyrimidin-4-yl)amino)-1-isopropyl-1H-pyrazolo[4,3-c]pyridin-3-yl)piperazin-1-yl)methyl)phenyl)amino)pip eridine-2,6-dione]
Degradation of substrate protein EGFR (substrate protein remaining %) (EGFR): A (A is defined as 0% ≤ substrate protein remaining % ≤ 80%)

SMILES: CCn1nc(N2CCC(N(C)Cc3ccc(N4CCC(=O)NC4=O)nc3)CC2)c2cnc(Nc3ccnc(-c4cnn(S(=O)(=O)C5CC5)c4)n3)cc21 [GT-06022, 1-(5-(((1-(6-((2-(1-(cyclopropylsulfonyl)-1H-pyrazol-4-yl)pyrimidin-4-yl)amino)-1-ethyl-1H-pyrazolo[4,3-c]pyridin-3-yl)piperidin-4-yl)(methyl)amino)methyl)pyridin-2-yl)dihydropyrimidine-2,4(1H,3H)-dione]
Degradation of substrate protein EGFR (substrate protein remaining %) (EGFR): A (A is defined as 0% ≤ substrate protein remaining % ≤ 80%)

SMILES: COC1CCN(c2nccc(Nc3cc4c(cn3)c(N3CCN(Cc5cccc(N6CCC(=O)NC6=O)c5)CC3)nn4C(C)C)n2)CC1 [GT-06038, 1-(3-((4-(1-isopropyl-6-((2-(4-methoxypiperidin-1-yl)pyrimidin-4-yl)amino)-1H-pyrazolo[4,3-c]pyridin-3-yl)piperazin-1-yl)methyl)phenyl)dihydropyr imidine-2,4(1H,3H)-dione]
Degradation of substrate protein EGFR (substrate protein remaining %) (EGFR): A (A is defined as 0% ≤ substrate protein remaining % ≤ 80%)

SMILES: COC1CCN(c2nccc(Nc3cc4c(cn3)c(N3CCN(Cc5ccc(N6CCC(=O)NC6=O)cn5)CC3)nn4C(C)C)n2)CC1 [GT-06039, 1-(6-((4-(1-isopropyl-6-((2-(4-methoxypiperidin-1-yl)pyrimidin-4-yl)amino)-1H-pyrazolo[4,3-c]pyridin-3-yl)piperazin-1-yl)methyl)pyridin-3-yl)dihydropyrimidine-2,4(1H,3H)-dione]
Degradation of substrate protein EGFR (substrate protein remaining %) (EGFR): A (A is defined as 0% ≤ substrate protein remaining % ≤ 80%)

IC50 (H2228): 50 to 100 nM | IC50 (MM.1S): 500 to 1000 nM | IC50 (H1975): 500 to 1000 nM | IC50 (MCF7): 500 to 1000 nM
SMILES: CCc1cc2c(cc1N1CCC(N3CCN(Cc4ccc(N5CCC(=O)NC5=O)cn4)CC3)CC1)C(C)(C)c1[nH]c3cc(C#N)ccc3c1C2=O [GT-07311, 8-(4-(4-((5-(2,4-dioxotetrahydropyrimidin-1(2H)-yl)pyridin-2-yl)methyl)piperazin-1-yl)piperidin-1-yl)-9-ethyl-6,6-dimethyl-11-oxo-6,11-dihydro-5H-benzo[b]carbazole-3-carbonitrile]
IC50 (SR): 1 to 10 nM

IC50 (H2228): 10 to 50 nM | IC50 (MM.1S): 500 to 1000 nM | IC50 (H1975): 100 to 500 nM | IC50 (MCF7): 100 to 500 nM
SMILES: COc1cc(N2CCC(N3CCN(Cc4ccc(N5CCC(=O)NC5=O)cc4)CC3)CC2)ccc1Nc1ncc(Cl)c(Nc2ccccc2P(C)(C)=O)n1 [GT-07603, 1-(4-((4-(1-(4-((5-chloro-4-((2-(dimethylphosphoryl)phenyl)amino)pyrimidin-2-yl)amino)-3-methoxyphenyl)piperidin-4-yl)piperazin-1-yl)methyl)phenyl)dihydropyr imidine-2,4(1H,3H)-dione]
IC50 (SR): 10 to 50 nM

IC50 (H2228): 50 to 100 nM | IC50 (MM.1S): 500 to 1000 nM | IC50 (H1975): 500 to 1000 nM | IC50 (MCF7): 500 to 1000 nM
SMILES: CCc1cc2c(cc1N1CCC(N3CCN(Cc4cncc(C5CCC(=O)NC5=O)c4)CC3)CC1)C(C)(C)c1[nH]c3cc(C#N)ccc3c1C2=O (stereo not shown) [GT-07706, 8-(4-(4-((5-(2,6-dioxopiperidin-3-yl)pyridin-3-yl)methyl)piperazin-1-yl)piperidin-1-yl)-9-ethyl-6,6-dimethyl-11-oxo-6,11-dihydro-5H-benzo[b]carbazole-3-carbonitrile]
IC50 (SR): 1 to 10 nM
